Our source for the IC50 values is patent US20240409585A1, “MACROCYCLIC IMMUNOMODULATORS” (priority 2021, published 2024).

As a reminder, the IC50 is the concentration at which inhibition is half-maximal.

Bridge positions count the residues as written; N and C are the ends. Square brackets hold non-standard residues; d marks the D form. Peptide text beside a SMILES is read from it. * marks the point of attachment. ξ: configuration not given here. Phe(3-CF3) = N[C@@H](Cc1cccc(C(F)(F)F)c1)C(=O)O; Ala(morpholin-4-yl) = N[C@@H](CN1CCOCC1)C(=O)O; Phe(4-COOH) = N[C@@H](Cc1ccc(C(=O)O)cc1)C(=O)O; Bip = N[C@@H](Cc1ccc(-c2ccccc2)cc1)C(=O)O; Phe(3-Me) = Cc1cccc(C[C@H](N)C(=O)O)c1; Val(3-OH) = CC(C)(O)[C@H](N)C(=O)O; hArg = N=C(N)NCCCC[C@H](N)C(=O)O; 3Pal = N[C@@H](Cc1cccnc1)C(=O)O; 4Pal = N[C@@H](Cc1ccncc1)C(=O)O; Cha = N[C@@H](CC1CCCCC1)C(=O)O; Cit = NC(=O)NCCC[C@H](N)C(=O)O; Ile(3ξ) = CCC(C)[C@H](N)C(=O)O; AllylGly = C=CC[C@H](N)C(=O)O; Thr(3ξ) = CC(O)[C@H](N)C(=O)O; hLeu = CC(C)CC[C@H](N)C(=O)O; Pip = O=C(O)[C@@H]1CCCCN1; Carboxymethyl = O=C(O)C*; NMeA = CN[C@@H](C)C(=O)O; Orn = NCCC[C@H](N)C(=O)O; Dab = NCC[C@H](N)C(=O)O; ξC = NC(CS)C(=O)O

T1 sequence (Q15116 25-288): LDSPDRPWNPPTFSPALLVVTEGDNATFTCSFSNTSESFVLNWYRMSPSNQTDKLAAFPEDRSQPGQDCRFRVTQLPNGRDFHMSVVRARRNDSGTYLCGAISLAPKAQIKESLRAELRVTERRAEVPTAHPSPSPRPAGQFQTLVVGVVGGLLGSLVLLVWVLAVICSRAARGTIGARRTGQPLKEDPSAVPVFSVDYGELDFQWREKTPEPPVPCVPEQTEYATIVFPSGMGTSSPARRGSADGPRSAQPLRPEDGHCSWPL

The assay concerns the target T1, PE-labeled human PD-L1-Ig binding to Jurkat cell line over-expressing human PD-1 (Jurkat-PD-1) (Homo sapiens, UniProt Q15116).
T1 construct: expressed in transfected cells; host or cells: Jurkat
Nature of the assay: Jurkat-PD-1 Cell Binding High-Content Screening Assay (CBA): Method 1. The settings on record: Jurkat-hPD-1 cells, PE-labeled PD-L1-Ig 20 nM final; read-out: Jurkat HPDL1 PD1 IC50 (uM) (Method 1).
`CC(C)C[C@@H]1NC(=O)[C@H](CCN)NC(=O)[C@@H](CC(C)C)NC(=O)[C@H](C)N(C)C(=O)[C@H](C(C)C)NC(=O)[C@H](Cc2ccc(-c3ccccc3)cc2)NC(=O)[C@H](C(C)C)NC(=O)[C@H](Cc2c[nH]c3ccccc23)NC(=O)[C@H](CC(=O)O)NC(=O)[C@H](Cc2ccc(OCC(=O)O)cc2)NC(=O)[C@H](Cc2ccc(OCC(=O)O)cc2)NC(=O)CSC[C@@H](C(=O)N[C@@H](C)C(N)=O)NC(=O)[C@H]([C@@H](C)O)NC(=O)[C@H](C(C)C)NC1=O` [Compound 1567] ({CH2CO}-Y(Carboxymethyl)Y(Carboxymethyl)DWV[Bip]V[NMeA][dL][Dab]LVTCA-NH2; thioether N-14): the IC50 was found to be 0.02 µM.

As for `CC(C)C[C@@H]1NC(=O)[C@H](CCN)NC(=O)[C@@H](CC(C)C)NC(=O)[C@H](C)N(C)C(=O)[C@H](CCCNC(N)=O)NC(=O)[C@H](Cc2ccc(-c3ccccc3)cc2)NC(=O)[C@H](C(C)C)NC(=O)[C@H](Cc2c[nH]c3ccccc23)NC(=O)[C@H](CC(=O)O)NC(=O)[C@H](Cc2ccc(O)cc2)NC(=O)[C@H](CCCCNC(=N)N)NC(=O)CSC[C@@H](C(=O)N[C@@H](C)C(N)=O)NC(=O)[C@H]([C@@H](C)O)NC(=O)[C@H](C(C)C)NC1=O` [Compound 1349] ({CH2CO}-[hArg]YDWV[Bip][Cit][NMeA][dL][Dab]LVTCA-NH2; thioether N-14), the IC50 was found to be 0.06 µM. As for `CC[C@H](C)[C@@H]1NC(=O)[C@H](Cc2ccc(-c3ccccc3)cc2)NC(=O)[C@H](C(C)C)NC(=O)[C@H](Cc2c[nH]c3ccccc23)NC(=O)[C@H](CC(=O)O)NC(=O)[C@H](Cc2ccc(O)cc2)NC(=O)[C@H](CC(N)=O)NC(=O)CSC[C@@H](C(=O)N[C@@H](C)C(N)=O)NC(=O)[C@H]([C@@H](C)O)NC(=O)[C@H](C(C)C)NC(=O)[C@H](CC(C)C)NC(=O)[C@H](CCN)NC(=O)[C@@H](CC(C)C)NC(=O)[C@@H]2CCCCN2C1=O` [Compound 1399] ({CH2CO}-NYDWV[Bip]I[Pip][dL][Dab]LVTCA-NH2; thioether N-14), the IC50 was 0.14 µM.

As to `CC(C)C[C@@H]1NC(=O)[C@H](Cc2c[nH]c3ccccc23)NC(=O)[C@H](CC(=O)O)NC(=O)[C@H](Cc2ccc(OCC(=O)O)cc2)NC(=O)[C@H](Cc2cnc[nH]2)NC(=O)CSC[C@@H](C(=O)N[C@@H](C)C(N)=O)NC(=O)[C@H](CO)NC(=O)[C@H](C(C)C)NC(=O)[C@H](CC(C)C)NC(=O)[C@H](CC(N)=O)NC(=O)[C@@H](C)NC(=O)[C@H](C)N(C)C(=O)[C@H](C(C)C)NC(=O)[C@H](Cc2ccc(-c3ccccc3)cc2)NC1=O` [Compound 1799] ({CH2CO}-HY(Carboxymethyl)DWL[Bip]V[NMeA][dA]NLVSCA-NH2; thioether N-14), the IC50 came to 0.18 µM. In the case of `Cc1cccc(C[C@@H]2NC(=O)[C@H](CC(=O)O)NC(=O)[C@H](Cc3ccc(OCC(=O)O)cc3)NC(=O)[C@H](C(C)O)NC(=O)CSC[C@@H](C(=O)N[C@@H](CCN)C(N)=O)NC(=O)[C@H](C(C)O)NC(=O)[C@H](C(C)(C)O)NC(=O)[C@H](CC3CCCCC3)NC(=O)[C@H](CCN)NC(=O)[C@@H](CC(C)C)NC(=O)[C@H](C)N(C)C(=O)[C@H](Cc3ccc(OCC(=O)O)cc3)NC(=O)[C@H](Cc3ccc(-c4ccccc4)cc3)NC(=O)[C@H](Cc3ccc(C(=O)O)cc3)NC2=O)c1` (stereo partly drawn) [Compound 2148] ({CH2CO}-[Thr(3ξ)]Y(Carboxymethyl)D[Phe(3-Me)][Phe(4-COOH)][Bip]Y(Carboxymethyl)[NMeA][dL][Dab][Cha][Val(3-OH)][Thr(3ξ)]C[Dab]-NH2; thioether N-14) it was 0.01 µM; in that of `CC(C)C[C@@H]1NC(=O)[C@H](CCN)NC(=O)[C@@H](CC(C)C)NC(=O)[C@H](C)N(C)C(=O)[C@H](CCCNC(=N)N)NC(=O)[C@H](Cc2ccc(-c3ccccc3)cc2)NC(=O)[C@H](C(C)C)NC(=O)[C@H](Cc2c[nH]c3ccccc23)NC(=O)[C@H](CC(=O)O)NC(=O)[C@H](Cc2ccc(O)cc2)NC(=O)[C@H](CC(N)=O)NC(=O)CSC[C@@H](C(=O)N[C@H](C)C(N)=O)NC(=O)[C@H]([C@@H](C)O)NC(=O)[C@H](C(C)C)NC1=O` [Compound 1183] ({CH2CO}-NYDWV[Bip]R[NMeA][dL][Dab]LVTC[dA]-NH2; thioether N-14), 0.15 µM. In the case of `CC(C)C[C@H]1NC(=O)[C@H](C)N(C)C(=O)[C@H](CCC(N)=O)NC(=O)[C@H](Cc2ccc(-c3ccccc3)cc2)NC(=O)[C@H](Cc2ccc(C(=O)O)cc2)NC(=O)[C@H](Cc2cccc(C(F)(F)F)c2)NC(=O)[C@H](CC(N)=O)NC(=O)[C@H](Cc2ccc(C(=O)O)cc2)NC(=O)[C@H](CN2CCOCC2)NC(=O)CSC[C@@H](C(=O)N[C@@H](CCN)C(N)=O)NC(=O)[C@H](CCCN)NC(=O)[C@H](C(C)C)NC(=O)[C@H](CC2CCCCC2)NC(=O)[C@H](CCN)NC1=O` [Example 2279] ({CH2CO}-[Ala(morpholin-4-yl)][Phe(4-COOH)]N[Phe(3-CF3)][Phe(4-COOH)][Bip]Q[NMeA][dL][Dab][Cha]V[Orn]C[Dab]-NH2; thioether N-14) it was 0.11 µM. With `Cc1cccc(C[C@@H]2NC(=O)[C@H](Cc3cccnc3)NC(=O)CSC[C@@H](C(=O)NCC(N)=O)NC(=O)[C@H](CO)NC(=O)[C@H](C(C)C)NC(=O)[C@H](CC(C)C)NC(=O)[C@H](CC(N)=O)NC(=O)[C@@H](CC(C)C)NC(=O)[C@H](C)N(C)C(=O)[C@H](C(C)C)NC(=O)[C@H](Cc3ccc(-c4ccccc4)cc3)NC(=O)[C@H](CC(C)C)NC(=O)[C@H](Cc3c[nH]c4ccccc34)NC(=O)[C@H](CC(=O)O)NC2=O)c1` [Compound 1520] ({CH2CO}-[3Pal][Phe(3-Me)]DWL[Bip]V[NMeA][dL]NLVSCG-NH2; thioether N-14), the IC50 was 0.01 µM. As for `CC(C)CC[C@@H]1NC(=O)[C@H](CCCNC(=N)N)NC(=O)[C@@H](CC(C)C)NC(=O)[C@H](C)N(C)C(=O)[C@H](CCCNC(=N)N)NC(=O)[C@H](Cc2ccc(-c3ccccc3)cc2)NC(=O)[C@H](C(C)C)NC(=O)[C@H](Cc2c[nH]c3ccccc23)NC(=O)[C@H](CC(=O)O)NC(=O)[C@H](Cc2ccc(O)cc2)NC(=O)[C@H](Cc2ccccc2)NC(=O)CSC[C@@H](C(=O)N[C@@H](C)C(N)=O)NC(=O)[C@H]([C@@H](C)O)NC(=O)[C@H](C(C)C)NC1=O` [Compound 1116] ({CH2CO}-FYDWV[Bip]R[NMeA][dL]R[hLeu]VTCA-NH2; thioether N-14), the 50% inhibitory concentration (IC50) is 0.06 µM. As for `CC(C)C[C@@H]1NC(=O)[C@H](CCN)NC(=O)[C@@H](CC(C)C)NC(=O)[C@H](C)N(C)C(=O)[C@H](CCCNC(=N)N)NC(=O)[C@H](Cc2ccc(-c3ccccc3)cc2)NC(=O)[C@H](C(C)C)NC(=O)[C@H](Cc2c[nH]c3ccccc23)NC(=O)[C@H](CC(=O)O)NC(=O)[C@H](Cc2ccc(C(=O)O)cc2)NC(=O)[C@H](Cc2cnc[nH]2)NC(=O)CSC[C@@H](C(=O)N[C@@H](C)C(N)=O)NC(=O)[C@H]([C@@H](C)O)NC(=O)[C@H](C(C)C)NC1=O` [Compound 1151] ({CH2CO}-H[Phe(4-COOH)]DWV[Bip]R[NMeA][dL][Dab]LVTCA-NH2; thioether N-14), the IC50 was found to be 0.04 µM.

On to `CCC(C)[C@@H]1NC(=O)[C@H](Cc2ccc(-c3ccccc3)cc2)NC(=O)[C@H](CC(C)C)NC(=O)[C@H](Cc2c[nH]c3ccccc23)NC(=O)[C@H](CC(=O)O)NC(=O)[C@H](Cc2ccc(C(=O)O)cc2)NC(=O)[C@H](Cc2ccc(OCC(=O)O)cc2)NC(=O)CSC[C@@H](C(=O)N[C@@H](CC(N)=O)C(N)=O)NC(=O)[C@H](CCC(=O)O)NC(=O)[C@H](C(C)C)NC(=O)[C@H](CC2CCCCC2)NC(=O)[C@H](CCN)NC(=O)[C@@H](CC(C)C)NC(=O)[C@H](C)N(C)C1=O` (stereo partly drawn) [Compound 1921] ({CH2CO}-Y(Carboxymethyl)[Phe(4-COOH)]DWL[Bip][Ile(3ξ)][NMeA][dL][Dab][Cha]VECN-NH2; thioether N-14), for which the IC50 came out at 0.01 µM.

As to `C=CC[C@@H]1NC(=O)[C@H](CC(C)C)NC(=O)[C@H](CC(N)=O)NC(=O)[C@@H](CC(C)C)NC(=O)[C@H](C)N(C)C(=O)[C@H](CC=C)NC(=O)[C@H](Cc2ccc(-c3ccccc3)cc2)NC(=O)[C@H](CC(C)C)NC(=O)[C@H](Cc2cccc(C)c2)NC(=O)[C@H](CC(=O)O)NC(=O)[C@H](Cc2ccncc2)NC(=O)[C@H](Cc2ccc(OCC(=O)O)cc2)NC(=O)CSCC(C(=O)NCC(N)=O)NC(=O)[C@H](CO)NC1=O` (stereo partly drawn) [Compound 1881] ({CH2CO}-Y(Carboxymethyl)[4Pal]D[Phe(3-Me)]L[Bip][AllylGly][NMeA][dL]NL[AllylGly]S[ξC]G-NH2; thioether N-14), the IC50 was 0.1 µM. In the case of `CC(C)C[C@@H]1NC(=O)[C@H](CCCNC(=N)N)NC(=O)[C@@H](CC(C)C)NC(=O)[C@H](C)N(C)C(=O)[C@H](CCCNC(=N)N)NC(=O)[C@H](Cc2ccc(-c3ccccc3)cc2)NC(=O)[C@H](C(C)C)NC(=O)[C@H](Cc2c[nH]c3ccccc23)NC(=O)[C@H](CC(=O)O)NC(=O)[C@H](Cc2ccc(O)cc2)NC(=O)[C@H](Cc2ccccc2)NC(=O)CSC[C@@H](C(=O)NCC(N)=O)NC(=O)[C@H](CO)NC(=O)[C@H](C(C)C)NC1=O` [Compound 1017] ({CH2CO}-FYDWV[Bip]R[NMeA][dL]RLVSCG-NH2; thioether N-14) it was 0.04 µM; in that of `CCC(C)[C@@H]1NC(=O)[C@H](Cc2ccc(-c3ccccc3)cc2)NC(=O)[C@H](C(C)C)NC(=O)[C@H](Cc2c[nH]c3ccccc23)NC(=O)[C@H](CC(=O)O)NC(=O)[C@H](Cc2ccc(O)cc2)NC(=O)[C@H](CC(N)=O)NC(=O)CSCC(C(=O)NCC(=O)N[C@@H](CCN)C(=O)O)NC(=O)[C@H](C(C)O)NC(=O)[C@H](C(C)C)NC(=O)[C@H](CC2CCCCC2)NC(=O)[C@H](CC(N)=O)NC(=O)[C@@H](CC(C)C)NC(=O)[C@H](C)N(C)C1=O` (stereo partly drawn) [Compound 2003] ({CH2CO}-NYDWV[Bip][Ile(3ξ)][NMeA][dL]N[Cha]V[Thr(3ξ)][ξC]G[Dab]-OH; thioether N-14), 0.02 µM.
